From patent publication US8937089B2, “Synergistic mixtures of anthranilamide invertebrate pest control agents” (priority 2004, dated 2015)
Read-outs that look alike come from different tables or passages of the source.

Tests used:
Test in all cases: whole plant or invertebrate
Assay type in all cases: in vivo
[1] = test system: cotton melon aphid (Aphis gossypii Glover)
Summary of the method: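 Sprays in acetone–water with 300 ppm non-ionic surfactant, at ppm concentrations, applied to aphid-infested (30–40 per plant) 6–7-day cotton, in triplicate. Evaluation after 6 days in a growth chamber at 19–21 °C and 50–70% relative humidity, covering contact and/or systemic action.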

[2] = test system: western flower thrip (Frankliniella occidentalis Pergande)
Summary of the method: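 Bean plants aged 5–7 days received a spray of test solution (10% acetone, 90% water, 300 ppm surfactant), in triplicate. Adult thrips (22–27 per unit) were introduced once the plants had dried for 1 h. Incubation lasted 7 days at 25° C and 45–55% RH.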

[3] = test system: green peach aphid (Myzus persicae Sulzer)
Summary of the method: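 Compounds formulated in 10% acetone/water with 300 ppm X-77 surfactant were atomized onto aphid-infested radish seedlings, with three replicates per treatment. Infestation was 30–40 aphids transferred on excised leaf pieces, covering contact and systemic exposure. Test units stayed 6 days in a growth chamber at 19–21 °C and 50–70% relative humidity.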

[4] = test system: potato leafhopper (Empoasca fabae Harris)
Summary of the method: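 Contact and/or systemic test: five adult leafhoppers aged 18–21 days were released onto Longio bean plants 1 h after spraying. The spray was 1 mL per unit in acetone/water (10:90) with 300 ppm non-ionic surfactant, run in triplicate. Plants were kept 6 days in a growth chamber at 19–21 °C and 50–70% humidity.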

[5] = test system: corn planthopper (Peregrines maidis)
Summary of the method: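 Contact/systemic test on corn planthopper: 10–20 nymphs (18- to 20-day-old) released onto young maize plants 1 h after spraying, with three replicate units per treatment. Spray solution was acetone/water 10:90 containing 300 ppm non-ionic spreader; units kept 6 days at 19-21° C., 50-70% RH.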

[6] = test system: silverleaf whitefly (Bemisia argentifolii Bellows and Perring)
Summary of the method: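 Whitefly-egg-infested 12–14-day-old cotton plants sprayed with compound in 10% acetone/90% water plus 300 ppm non-ionic surfactant, in triplicate. Plants then held 13 days at 28 °C and 50–70% relative humidity before mortality assessment.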

[7] = rate 1 ppm, single compound, spray, 7 days
[8] = rate 500 ppm, single compound, spray, 7 days

## CNC(=O)c1cc(Cl)cc(C)c1NC(=O)c1cc(Br)nn1-c1ncccc1Cl [Compound 1, 3-bromo-N-[4-chloro-2-methyl-6-[(methylamino)carbonyl]phenyl]-1-(3-chloro-2-pyridinyl)-1H-pyrazole-5-carboxamide]
[1]; Aphis gossypii, Table 6A, Compound 1 0.8 ppm, read-out: % Mortality (observed)
  mortality at 0.8 ppm: 12%
[1]; Aphis gossypii, Table 6A, Compound 1 4.5 ppm, read-out: % Mortality (observed)
  mortality at […]: 32%
[1]; Aphis gossypii, Table 6A, Compound 1 25 ppm, read-out: % Mortality (observed)
  mortality at 25 ppm: 23%
[1]; Aphis gossypii, rate 4 ppm, read-out: % mortality (obs)
  mortality at 4 ppm: 25%
[1]; Aphis gossypii, rate 20 ppm, read-out: % mortality (obs)
  mortality at 20 ppm: 41%
[1]; Aphis gossypii, rate 100 ppm, read-out: % mortality (obs)
  mortality at 100 ppm: 49%
[2]; Frankliniella occidentalis, 168 h, rate 10 ppm, single compound, spray, 7 days, read-out: % mortality (obs)
  mortality at 10 ppm: 44%
[2]; Frankliniella occidentalis, 168 h, rate 50 ppm, single compound, spray, 7 days, read-out: % mortality (obs)
  mortality at 50 ppm: 49%
[2]; Frankliniella occidentalis, 168 h, rate 100 ppm, single compound, spray, 7 days, read-out: % mortality (obs)
  mortality at 100 ppm: 46%
[2]; Frankliniella occidentalis, Table 3A, Compound 1 8 ppm, read-out: % Mortality (observed)
  mortality at 8 ppm: 3%
[2]; Frankliniella occidentalis, Table 3A, Compound 1 25 ppm, read-out: % Mortality (observed)
  mortality at 25 ppm: 17%
[2]; Frankliniella occidentalis, Table 3A, Compound 1 81 ppm, read-out: % Mortality (observed)
  mortality at 81 ppm: 30%
[3]; Myzus persicae, in Raphanus sativus, Green Peach Aphid, rate 10 ppm, read-out: % mortality (obs)
  mortality at 10 ppm: 24%
[3]; Myzus persicae, in Raphanus sativus, Green Peach Aphid, rate 20 ppm, read-out: % mortality (obs)
  mortality at 20 ppm: 35%
[3]; Myzus persicae, in Raphanus sativus, Green Peach Aphid, rate 40 ppm, read-out: % mortality (obs)
  mortality at 40 ppm: 36%
[3]; Myzus persicae, in Raphanus sativus, Table 7A, Compound 1 2.1 ppm, read-out: % Mortality (observed)
  mortality at 2.1 ppm: 5%
[3]; Myzus persicae, in Raphanus sativus, Table 7A, Compound 1 3.9 ppm, read-out: % Mortality (observed)
  mortality at 3.9 ppm: 2%
[3]; Myzus persicae, in Raphanus sativus, Table 7A, Compound 1 7.5 ppm, read-out: % Mortality (observed)
  mortality at […]: 6%
[4]; Empoasca fabae, Table 4A, Compound 1 0.4 ppm, read-out: % Mortality (observed)
  mortality at 0.4 ppm: 0%
[4]; Empoasca fabae, Table 4A, Compound 1 1.4 ppm, read-out: % Mortality (observed)
  mortality at 1.4 ppm: 0%
[4]; Empoasca fabae, Table 4A, Compound 1 4.6 ppm, read-out: % Mortality (observed)
  mortality at 4.6 ppm: 0%
[4]; Empoasca fabae, rate 4 ppm, alone, read-out: % mortality (obs)
  mortality at 4 ppm: 23%
[4]; Empoasca fabae, rate 14 ppm, alone, read-out: % mortality (obs)
  mortality at 14 ppm: 37%
[4]; Empoasca fabae, rate 50 ppm, alone, read-out: % mortality (obs)
  mortality at 50 ppm: 54%
[5]; Corn Plant Hopper, rate 20 ppm, read-out: % mortality (obs)
  mortality at 20 ppm: 15%
[5]; Corn Plant Hopper, rate 100 ppm, read-out: % mortality (obs)
  mortality at 100 ppm: 19%
[5]; Corn Plant Hopper, rate 500 ppm, read-out: % mortality (obs)
  mortality at 500 ppm: 28%
[5]; Table 5A, Compound 1 5 ppm, read-out: % Mortality (observed)
  mortality at 5 ppm: 6%
[5]; Table 5A, Compound 1 50 ppm, read-out: % Mortality (observed)
  mortality at 50 ppm: 9%
[5]; Table 5A, Compound 1 150 ppm, read-out: % Mortality (observed)
  mortality at 150 ppm: 28%
[6]; Bemisia argentifolii, in Gossypium hirsutum, Table 2A, Compound 1 8 ppm, read-out: % Mortality (observed)
  mortality at 8 ppm: 4%
[6]; Bemisia argentifolii, in Gossypium hirsutum, Table 2A, Compound 1 10 ppm, read-out: % Mortality (observed)
  mortality at 10 ppm: 1%
[6]; Bemisia argentifolii, in Gossypium hirsutum, Table 2B, rate 6 ppm, read-out: % mortality (obs)
  mortality at 6 ppm: 3%
[6]; Bemisia argentifolii, in Gossypium hirsutum, Table 2B, rate 8 ppm, read-out: % mortality (obs)
  mortality at 8 ppm: 3%
[6]; Bemisia argentifolii, in Gossypium hirsutum, Table 2B, rate 10 ppm, read-out: % mortality (obs)
  mortality at 10 ppm: 5%

## COC(=O)N(C(=O)N1CO[C@@]2(C(=O)OC)Cc3cc(Cl)ccc3C2=N1)c1ccc(OC(F)(F)F)cc1 [Indoxacarb]
[1]; rate 10 ppm
  % mortality (obs): 16%
[1]; rate 20 ppm
  % mortality (obs): 28%
[1]; rate 30 ppm
  % mortality (obs): 34%
[2]; [7]
  % mortality (obs): 50%
[2]; [8]
  % mortality (obs): 50%
[2]; rate 3000 ppm, single compound, spray, 7 days
  % mortality (obs): 50%
[3]; Green Peach Aphid, rate 10 ppm
  % mortality (obs): 9%
[3]; Green Peach Aphid, rate 20 ppm
  % mortality (obs): 7%
[3]; Green Peach Aphid, rate 30 ppm
  % mortality (obs): 8%
[4]; rate 0.5 ppm, alone
  % mortality (obs): 33%
[4]; rate 1 ppm, alone
  % mortality (obs): 20%
[4]; rate 2 ppm, alone
  % mortality (obs): 27%
[5]; Corn Plant Hopper, rate 50 ppm
  % mortality (obs): 3%
[5]; Corn Plant Hopper, rate 500 ppm
  % mortality (obs): 4%
[5]; Corn Plant Hopper, rate 3000 ppm
  % mortality (obs): 18%
[6]; Table 2B, rate 1 ppm
  % mortality (obs): 0%
[6]; Table 2B, rate 3 ppm
  % mortality (obs): 0%
[6]; Table 2B, rate 10 ppm
  % mortality (obs): 0%

## CNC(=O)O/N=C(\SC)C(=O)N(C)C [Oxamyl]
[1]; rate 1 ppm
  % mortality (obs): 29%
[1]; rate 10 ppm
  % mortality (obs): 37%
[1]; rate 1000 ppm
  % mortality (obs): 100%
[2]; [7]
  % mortality (obs): 30%
[2]; rate 50 ppm, single compound, spray, 7 days
  % mortality (obs): 40%
[2]; [8]
  % mortality (obs): 100%
[3]; Green Peach Aphid, rate 40 ppm
  % mortality (obs): 8%
[3]; Green Peach Aphid, rate 70 ppm
  % mortality (obs): 18%
[3]; Green Peach Aphid, rate 100 ppm
  % mortality (obs): 35%
[4]; rate 0.1 ppm, alone
  % mortality (obs): 20%
[4]; rate 2 ppm, alone
  % mortality (obs): 20%
[4]; rate 100 ppm, alone
  % mortality (obs): 100%
[5]; Corn Plant Hopper, rate 0.08 ppm
  % mortality (obs): 2%
[5]; Corn Plant Hopper, rate 0.16 ppm
  % mortality (obs): 5%
[5]; Corn Plant Hopper, rate 0.2 ppm
  % mortality (obs): 6%
[6]; Table 2B, rate 0.1 ppm
  % mortality (obs): 2%
[6]; Table 2B, rate 0.3 ppm
  % mortality (obs): 0%
[6]; Table 2B, rate 1 ppm
  % mortality (obs): 1%
